# What was measured:
# CYP3A4 = CYP3A4 (Homo sapiens, UniProt P08684); experiment: Cytochrome P450 (CYP450) Inhibition Assay, CYP3A4 (Vivid fluorescence, BOMCC substrate); conditions: for inhibition at 10 µM: human, P450 Baculosomes (recombinant CYP3A4), probe BOMCC (Vivid substrate)
# sodium channel = experiment: Guanidine influx assay (14C-guanidine radiotracer flux, in vitro); assay type: cell-based, human or rat; conditions: guanidine influx assay using a known cell line that expresses a sodium channel
# Source text: This example describes an in vitro assay for testing and profiling test agents against human or rat sodium channels stably expressed in cells of either an endogenous or recombinant origin. The assay is also useful for determining the IC50 of a sodium channel blocking compound. The assay is based on the guanidine flux assay described by Reddy, N. L., et al., J. Med. Chem. (1998), 41(17):3298-302.
# The guanidine influx assay is a radiotracer flux assay used to determine ion flux activity of sodium channels in a high-throughput microplate-based format. The assay uses ^14C-guanidine hydrochloride in combination with various known sodium channel modulators, to assay the potency of test agents. Potency is determined by an IC50 calculation. Selectivity is determined by comparing potency of the compound for the channel of interest to its potency against other sodium channels (also called ‘selectivity profiling’).
# Each of the test agents is assayed against cells that express the channels of interest. Voltage gated sodium channels are either TTX sensitive or insensitive. This property is useful when evaluating the activities of a channel of interest when it resides in a mixed population with other sodium channels. The following Table 1 summarizes cell lines useful in screening for a certain channel activity in the presence or absence of TTX.
# It is also possible to employ recombinant cells expressing these sodium channels. Cloning and propagation of recombinant cells are known to those skilled in the art (see, for example, Klugbauer, N, et al., EMBO J. (1995), 14(6):1084-90; and Lossin, C., et al., Neuron (2002), 34, pp. 877-884).
# Cells expressing the channel of interest are grown according to the supplier or in the case of a recombinant cell in the presence of selective growth media such as G418 (Gibco/Invitrogen). The cells are disassociated from the culture dishes with an enzymatic solution (Ix) Trypsin/EDTA (Gibco/Invitrogen) and analyzed for density and viability using haemocytometer (Neubauer). Disassociated cells are washed and resuspended in their culture media then plated into Scintiplates (Beckman Coulter Inc.) (approximately 100,000 cells/well) and incubated at 37° C./5% CO2 for 20-24 hours. After an extensive wash with Low sodium HEPES-buffered saline solution (LNHBSS) (150 mM Choline Chloride, […] (Sigma), 1 mM Calcium Chloride, 5 mM Potassium Chloride, 1 mM Magnesium Chloride, 10 mM Glucose) agents diluted with LNHBSS are added to each well. (Varying concentrations of test agent may be used). The activation/radiolabel mixture contains aconitine (Sigma) to increase the percentage of time that the sodium channels are open, and ^14C-guanidine hydrochloride (ARC) to measure flux through the voltage-gated sodium channels.
# After loading the cells with test agent and activation/radiolabel mixture, the Scintiplates are incubated at ambient temperature. Following the incubation, the Scintplates are extensively washed with LNHBSS supplemented with guanidine (Sigma). The Scintiplates are dried and then counted using a Wallac MicroBeta TriLux (Perkin-Elmer Life Sciences). The ability of the test agent to block sodium channel activity is determined by comparing the amount of ^14C-guanidine present inside the cells expressing the different sodium channels.
# The IC50 value of a test agent for a specific sodium channel may be determined using the above general method. […] Typically the mid-point concentration of test agent is set at 1 μM, and sequential concentrations of half dilutions greater or smaller are applied (e.g. 0.5 μM; 5 μM and 0.25 μM; 10 μM and 0.125 μM; 20 μM etc.). The IC50 curve is calculated using the 4 Parameter Logistic Model or Sigmoidal Dose-Response Model formula (fit=(A+((B−A)/(1+((C/x)^D)))).
# The fold selectivity, factor of selectivity or multiple of selectivity, is calculated by dividing the IC50 value of the test sodium channel by the reference sodium channel, for example, Nav1.5. […]
# CYP3A4, sequence (P08684 whole entry): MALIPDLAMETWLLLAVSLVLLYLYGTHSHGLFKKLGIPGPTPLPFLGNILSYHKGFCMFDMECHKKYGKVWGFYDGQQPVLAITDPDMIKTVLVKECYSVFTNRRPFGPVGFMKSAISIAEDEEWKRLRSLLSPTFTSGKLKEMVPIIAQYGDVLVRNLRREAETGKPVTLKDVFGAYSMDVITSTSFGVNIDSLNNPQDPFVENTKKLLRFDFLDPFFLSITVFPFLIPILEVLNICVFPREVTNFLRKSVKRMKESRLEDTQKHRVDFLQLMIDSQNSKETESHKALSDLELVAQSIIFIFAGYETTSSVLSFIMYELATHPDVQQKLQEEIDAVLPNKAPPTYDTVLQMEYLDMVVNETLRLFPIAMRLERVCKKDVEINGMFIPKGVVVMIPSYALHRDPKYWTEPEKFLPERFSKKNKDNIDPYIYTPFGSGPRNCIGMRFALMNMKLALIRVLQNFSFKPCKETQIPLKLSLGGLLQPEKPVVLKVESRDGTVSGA
Compound,inhibition at 10 µM (CYP3A4),IC50 (sodium channel),IC50 (sodium channel; activity level class),% Inhibition of CYP3A4 (CYP3A4; at 10 μM)
"C[C@@H](NC(=O)c1cccc(CN2C(=O)C3(COc4cc5c(cc43)CCO5)c3ccccc32)c1)C1CCCCC1 (stereo partly drawn) [Example 12.7, N-[(1R)-1-cyclohexylethyl]-3-[(2′-oxo-5,6-dihydrospiro[benzo[1,2-b:5,4-b′]difuran-3,3′-indol]-1′(2′H)-yl)methyl]benzamide]",> 50%,1000 to 10000 nM,,
"COc1cc2c(cc1C)[C@]1(CO2)C(=O)N(CN2CCN(C)CC2)c2ccccc21 [Example 11.65, (3R)-6-methoxy-5-methyl-1′-[(4-methylpiperazin-1-yl)methyl]spiro[1-benzofuran-3,3′-indol]-2′(1′H)-one hydrogen chloride]",> 50%,100 to 1000 nM,,
"COC(=O)c1ccc(CN2C(=O)C3(COc4cc5c(cc43)CCO5)c3ccccc32)o1 (centres unmarked) [Example 4.7, methyl 5-[(2′-oxo-5,6-dihydrospiro[benzo[1,2-b:5,4-b′]difuran-3,3′-indol]-1′(2′H)-yl)methyl]furan-2-carboxylate]",> 50%,,1 to 100 nM,
"O=C1N(Cc2cc(Br)cs2)c2ccccc2C12COc1cc3c(cc12)OCO3 (centres unmarked) [Example 1.7, 1′-[(4-bromo-2-thienyl)methyl]spiro[furo[2,3-f][1,3]benzodioxole-7,3′-indol]-2′(1′H)-one]",> 50%,,1 to 100 nM,
"COc1ccccc1NC(=O)c1ccc(CN2C(=O)C3(COc4cc5c(cc43)CCO5)c3ccccc32)cc1 (centres unmarked) [Example 12.25, N-(2-methoxyphenyl)-4-[(2′-oxo-5,6-dihydrospiro[benzo[1,2-b:5,4-b′]difuran-3,3′-indol]-1′(2′H)-yl)methyl]benzamide]",< 50%,1000 to 10000 nM,,
"Cn1nnc2cc(CN3C(=O)C4(COc5cc6c(cc54)OCCO6)c4ccccc43)ccc21 (centres unmarked) [Example 7.23, 1′-[(1-methyl-1H-benzotriazol-5-yl)methyl]-2,3-dihydrospiro[furo[2,3-g][1,4]-benzodioxine-8,3′-indol]-2′(1′H)-one]",< 50%,,1 to 100 nM,
"N#Cc1cc2c(cc1F)OCC21C(=O)N(Cc2ccccc2C(F)(F)F)c2ccccc21 (centres unmarked) [Example 9.50, 6-fluoro-2′-oxo-1′-[2-(trifluoromethyl)benzyl]-1′,2′-dihydrospiro[1-benzofuran-3,3′-indole]-5-carbonitrile]",> 50%,,1000 to 10000 nM,
"O=C1N(Cc2ccc(-c3cccnc3)cc2)c2ccccc2C12COc1cc3c(cc12)CCO3 (centres unmarked) [Example 11.16, 1′-(4-pyridin-3-ylbenzyl)-5,6-dihydrospiro[benzo[1,2-b:5,4-b′]difuran-3,3′-indol]-2′(1′H)-one]",> 50%,100 to 1000 nM,,
"O=C1N(Cc2ccccn2)c2ccccc2C12COc1cc3c(c(F)c12)OCCO3 (centres unmarked) [Example 5.25, 9-fluoro-1′-(pyridin-2-ylmethyl)-2,3-dihydro-spiro[furo[2,3-g][1,4]benzodioxine-8,3′-indol]-2′(1′H)-one]",> 50%,,1 to 100 nM,
"O=C1N(Cc2ccc(C(F)(F)F)o2)c2cccc(Cl)c2C12COc1cc3c(cc12)OCO3 (centres unmarked) [Example 4.90, 4′-chloro-1′-{[5-(trifluoromethyl)-2-furyl]methyl}spiro[furo[2,3-f][1,3]benzodioxole-7,3′-indol]-2′(1′H)-one]",> 50%,,1 to 100 nM,
"COc1ccc(Oc2cccc3c2C2(COc4cc5c(cc42)OCCO5)C(=O)N3C)cn1 (centres unmarked) [Example 16.82, 4′-[(6-methoxypyridin-3-yl)oxy]-1′-methyl-2,3-dihydrospiro[furo[2,3-g][1,4]benzodioxine-8,3′-indol]-2′(1′H)-one]",< 50%,,,
"O=C1N(Cc2ccc(O)cn2)c2ccccc2C12COc1cc3c(c(F)c12)OCCO3 (centres unmarked) [Example 5.27, 9-fluoro-1′-[(5-hydroxypyridin-2-yl)methyl]-2,3-dihydrospiro[furo[2,3-g][1,4]benzodioxine-8,3′-indol]-2′(1′H)-one]",> 50%,,100 to 1000 nM,
"O=C1N(Cc2cccc(S(=O)(=O)N3CCOCC3)c2)c2ccccc2C12COc1cc3c(cc12)OCCO3 (centres unmarked) [Example 7.17, 1′-[3-(morpholin-4-ylsulfonyl)benzyl]-2,3-dihydrospiro[furo[2,3-g][1,4]benzodioxine-8,3′-indol]-2′(1′H)-one]",> 50%,,1000 to 10000 nM,
O=C1N(CCC2CC2)c2ccccc2C12COc1cc3c(cc12)OCCO3 (centres unmarked) [Example 7.6],< 50%,,,
"O=C1N(Cc2ccccn2)c2ccccc2C12COc1cc(F)c(F)cc12 (centres unmarked) [Example 9.64, 5,6-difluoro-1′-(pyridin-2-ylmethyl)spiro[1-benzofuran-3,3′-indol]-2′(1′H)-one]",< 50%,100 to 1000 nM,,
"O=C1N(C[C@H]2CCCO2)c2ccccc2[C@]12COc1cc3c(cc12)CCO3 [Example 11.62, (3S)-1′-[(2R)-tetrahydrofuran-2-ylmethyl]-5,6-dihydrospiro[benzo[1,2-b:5,4-b′]difuran-3,3′-indol]-2′(1′H)-one]",< 50%,,,
"CC(C)NC(=O)N1CCC(CN2C(=O)C3(COc4cc5c(cc43)CCO5)c3ccccc32)C1 (centres unmarked) [11.62, N-(1-methylethyl)-3-[(2′-oxo-5,6-dihydrospiro[benzo[1,2-b:5,4-b′]difuran-3,3′-indol]-1′(2′H)-yl)methyl]pyrrolidine-1-carboxamide]",> 50%,,,
"CCCCCCN1C(=O)C2(COc3cc4c(cc32)OCCO4)c2ccccc21 (centres unmarked) [Example 7.5, 1′-hexyl-2,3-dihydrospiro[furo[2,3-g][1,4]benzodioxine-8,3′-indol]-2′(1′H)-one]",> 50%,,,
COCCCN1C(=O)C2(COc3cc4c(cc32)OCCO4)c2ccccc21 (centres unmarked) [Example 7.9],< 50%,,,
"CN1C(=O)C2(COc3cc4c(cc32)OCCO4)c2c(OCc3ccc(F)cc3)cccc21 (centres unmarked) [Example 16.86, 1′-methyl-4-(4-fluorobenzyloxy)-2,3-dihydrospiro[furo[2,3-g][1,4]benzodioxine-8,3′-indol]-2′(1′H)-one]",> 50%,,,
"CN1C(=O)C2(COc3cc4c(cc32)OCCO4)c2c(Oc3cccc(N4CCOCC4)c3)cccc21 (centres unmarked) [Example 16.81, 1′-methyl-4′-(3-morpholin-4-ylphenoxy)-2,3-dihydrospiro[furo[2,3-g][1,4]benzodioxine-8,3′-indol]-2′(1′H)-one]",> 50%,,,
"CN1C(=O)C2(COc3cc4c(cc32)OCCO4)c2c(Oc3ccc4c(c3)OCO4)cccc21 (centres unmarked) [Example 16.83, 4′-(1,3-benzodioxol-5-yloxy)-1′-methyl-2,3-dihydrospiro[furo[2,3-g][1,4]benzodioxine-8,3′-indol]-2′(1′H)-one]",> 50%,,,
"CN(C)C(=O)c1cccc2c1C1(COc3cc4c(cc31)OCCO4)C(=O)N2C (centres unmarked) [Example 16.78, N,N,1′-trimethyl-2′-oxo-1′,2,2′,3-tetrahydrospiro[furo[2,3-g][1,4]benzodioxine-8,3′-indole]-4′-carboxamide]",< 50%,,,
CCOCCN1C(=O)C2(COc3cc4c(cc32)OCCO4)c2ccccc21 (centres unmarked) [Example 7.7],< 50%,,,
"CC(=O)c1cccc2c1C1(COc3cc4c(cc31)OCCO4)C(=O)N2C (centres unmarked) [Example 24, 4′-acetyl-t-methyl-2,3-dihydrospiro[furo[2,3-g][1,4]benzodioxine-8,3′-indol]-2′(1′H)-one]",,,,A (percent inhibition of less than 50% at 10 μM)

# Reference: patent US8263606B2 (Xenon Pharmaceuticals Inc., priority 2008, dated 2012)
